Reference: ChEMBL document CHEMBL3102750 (J Med Chem, 2013)
Positions count from the first letter of the chain named.

What was measured:
Type in all cases: functional, cell-based
[1] = molecular target: T1, Muscarinic acetylcholine receptor M1 (Homo sapiens, UniProt P11229); assay: Negative allosteric modulation of human muscarinic acetylcholine receptor M1 expressed in CHO cells assessed as inhibition of acetylcholine-induced calcium mobilization incubated for 150 secs prior to acetylcholine induction by Fluo-4 AM staining-based fluorescence assay
T1 sequence (P11229 whole entry): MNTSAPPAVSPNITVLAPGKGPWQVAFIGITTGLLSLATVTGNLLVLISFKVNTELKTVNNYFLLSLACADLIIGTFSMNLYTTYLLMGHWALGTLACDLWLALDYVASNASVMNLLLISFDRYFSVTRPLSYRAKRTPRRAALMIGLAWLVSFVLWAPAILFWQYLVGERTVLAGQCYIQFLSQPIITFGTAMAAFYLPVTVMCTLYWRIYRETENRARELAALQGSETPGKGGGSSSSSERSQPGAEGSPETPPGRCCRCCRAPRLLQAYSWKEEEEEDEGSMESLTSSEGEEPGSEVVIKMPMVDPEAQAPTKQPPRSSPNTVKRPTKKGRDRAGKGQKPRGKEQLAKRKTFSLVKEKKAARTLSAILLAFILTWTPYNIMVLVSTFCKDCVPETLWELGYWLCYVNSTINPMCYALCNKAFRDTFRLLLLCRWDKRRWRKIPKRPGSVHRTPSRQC

[2] = molecular target: T2, Muscarinic acetylcholine receptor M2 (Homo sapiens, UniProt P08172); assay: Negative allosteric modulation of human muscarinic acetylcholine receptor M2 expressed in CHO cells assessed as inhibition of acetylcholine-induced calcium mobilization incubated for 150 secs prior to acetylcholine induction by Fluo-4 AM staining-based fluorescence assay
T2 sequence (P08172 whole entry): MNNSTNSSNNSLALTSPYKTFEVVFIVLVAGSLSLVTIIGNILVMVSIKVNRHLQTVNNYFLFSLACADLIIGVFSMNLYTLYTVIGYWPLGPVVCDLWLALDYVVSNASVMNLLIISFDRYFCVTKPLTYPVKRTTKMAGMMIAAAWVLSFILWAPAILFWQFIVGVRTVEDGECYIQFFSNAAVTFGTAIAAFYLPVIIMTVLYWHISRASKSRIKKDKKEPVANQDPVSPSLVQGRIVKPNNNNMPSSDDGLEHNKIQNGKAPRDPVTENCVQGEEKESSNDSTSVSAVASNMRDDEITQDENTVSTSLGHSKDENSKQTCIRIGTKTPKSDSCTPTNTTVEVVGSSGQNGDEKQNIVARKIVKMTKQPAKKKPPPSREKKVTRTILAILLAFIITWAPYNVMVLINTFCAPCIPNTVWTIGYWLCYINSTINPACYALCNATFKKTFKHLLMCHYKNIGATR

[3] = molecular target: T3, Muscarinic acetylcholine receptor M4 (Homo sapiens, UniProt P08173); assay: Negative allosteric modulation of human muscarinic acetylcholine receptor M4 expressed in CHO cells assessed as inhibition of acetylcholine-induced calcium mobilization incubated for 150 secs prior to acetylcholine induction by Fluo-4 AM staining-based fluorescence assay
T3 sequence (P08173 whole entry): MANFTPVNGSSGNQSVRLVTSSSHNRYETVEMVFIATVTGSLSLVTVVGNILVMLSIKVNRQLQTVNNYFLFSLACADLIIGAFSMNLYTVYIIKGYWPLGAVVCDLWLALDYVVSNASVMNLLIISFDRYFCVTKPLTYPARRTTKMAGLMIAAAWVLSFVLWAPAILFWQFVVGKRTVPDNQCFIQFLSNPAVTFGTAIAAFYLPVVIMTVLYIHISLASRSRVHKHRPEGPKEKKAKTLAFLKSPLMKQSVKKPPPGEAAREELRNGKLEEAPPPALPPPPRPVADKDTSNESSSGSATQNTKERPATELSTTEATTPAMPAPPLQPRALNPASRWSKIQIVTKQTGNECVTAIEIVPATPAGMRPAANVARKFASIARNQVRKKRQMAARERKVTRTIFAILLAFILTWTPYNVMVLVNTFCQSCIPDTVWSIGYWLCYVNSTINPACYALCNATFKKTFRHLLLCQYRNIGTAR

[4] = molecular target: T4, Muscarinic acetylcholine receptor M1 (Rattus norvegicus, UniProt P08482); assay: Negative allosteric modulation of rat muscarinic acetylcholine receptor M1 expressed in CHO cells assessed as inhibition of acetylcholine-induced calcium mobilization incubated for 150 secs prior to acetylcholine induction by Fluo-4 AM staining-based fluorescence assay
T4 sequence (P08482 whole entry): T1 sequence (P11229 whole entry) with A5V, T254S, P309S, R320K, A337G, I413V

[5] = molecular target: T5, Muscarinic acetylcholine receptor M4 (Rattus norvegicus, UniProt P08485); assay: Negative allosteric modulation of rat muscarinic acetylcholine receptor M4 expressed in CHO cells assessed as inhibition of acetylcholine-induced calcium mobilization incubated for 150 secs prior to acetylcholine induction by Fluo-4 AM staining-based fluorescence assay
T5 sequence (P08485 whole entry): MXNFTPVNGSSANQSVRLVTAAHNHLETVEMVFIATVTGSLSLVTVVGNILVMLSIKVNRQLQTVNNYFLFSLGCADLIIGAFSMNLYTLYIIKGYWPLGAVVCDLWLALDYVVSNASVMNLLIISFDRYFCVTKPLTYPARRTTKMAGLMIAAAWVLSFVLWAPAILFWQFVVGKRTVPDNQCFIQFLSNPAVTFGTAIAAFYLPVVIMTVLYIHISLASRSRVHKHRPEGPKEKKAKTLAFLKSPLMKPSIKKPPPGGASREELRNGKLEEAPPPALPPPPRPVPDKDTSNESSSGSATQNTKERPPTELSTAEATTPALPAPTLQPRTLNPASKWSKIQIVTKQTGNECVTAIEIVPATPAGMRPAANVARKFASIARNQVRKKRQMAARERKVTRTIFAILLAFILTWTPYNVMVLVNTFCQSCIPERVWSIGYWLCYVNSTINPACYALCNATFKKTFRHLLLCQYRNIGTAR

Row | IC50 [1] | IC50 [2] | IC50 [3] | IC50 [4] | IC50 [5] | SMILES
1 | > 30 µM | > 30 µM | > 30 µM | > 30 µM | > 30 µM | O=C(c1ccc(F)c(F)c1)N1CCN2C(=O)c3ccccc3[C@@]12c1ccc(Cl)cc1
2 | > 30 µM | > 30 µM | > 30 µM | > 30 µM | > 30 µM | O=C(c1ccc(F)c(F)c1)N1CCN2C(=O)c3ccccc3C12c1ccccc1 (stereo not given)
